According to the supplement of paper PMC10307832:

Assays:
Experiment in all cases: relative viability (nuclei count vs DMSO), 5 days (fraction); higher = more cells survive
NCI-H1651 = tested on: NCI-H1651
Procedure, shortened: (§1)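 Relative viability was taken as the ratio of nuclei in treated wells to nuclei in vehicle wells. Lung cancer cell lines in 1536-well plates received compounds by pin tool one day after seeding, either one drug alone or a fixed anchor-drug dose plus five library-drug doses (not always all listed) in √10 steps. Nuclei were counted on 4× images after 5 days of treatment, and values are medians of duplicate plates.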

NCI-H1944 = tested on: NCI-H1944
Procedure, shortened: as §1

NCI-H1648 = tested on: NCI-H1648
Procedure, shortened: as §1

NCI-H650 = tested on: NCI-H650
Procedure, shortened: as §1

NCI-H1703 = tested on: NCI-H1703
Procedure, shortened: as §1

RERF-LC-KJ = tested on: RERF-LC-KJ
Procedure, shortened: as §1

NCI-H838 = tested on: NCI-H838
Procedure, shortened: as §1

A549 = tested on: A549
Procedure, shortened: as §1

NCI-H520 = tested on: NCI-H520
Procedure, shortened: as §1

## O=c1cc(N2CCOCC2)oc2c(-c3cccc4c3sc3ccccc34)cccc12 + NC(=O)Nc1cc(-c2cccc(F)c2)sc1C(=O)N[C@H]1CCCNC1 [AZD7762] (partner 0.2 µM)
NCI-H1651; first compound 0.01 µM
  relative viability: 0.494
NCI-H1651; first compound 0.03162 µM
  relative viability: 0.504
NCI-H1651; first compound 0.1 µM
  relative viability: 0.454
NCI-H1651; first compound 0.3162 µM
  relative viability: 0.44
NCI-H1651; first compound 1 µM
  relative viability: 0.384
NCI-H1944; first compound 0.01 µM
  relative viability: 0.541
NCI-H1944; first compound 0.03162 µM
  relative viability: 0.527
NCI-H1944; first compound 0.1 µM
  relative viability: 0.481
NCI-H1944; first compound 0.3162 µM
  relative viability: 0.528
NCI-H1944; first compound 1 µM
  relative viability: 0.438
NCI-H1648; first compound 0.03162 µM
  relative viability: 0.889
NCI-H1648; first compound 0.1 µM
  relative viability: 0.714
NCI-H1648; first compound 0.3162 µM
  relative viability: 0.609
NCI-H1648; first compound 1 µM
  relative viability: 0.746
NCI-H650; first compound 0.01 µM
  relative viability: 1.11
NCI-H650; first compound 0.03162 µM
  relative viability: 1.15
NCI-H650; first compound 0.3162 µM
  relative viability: 1.15
NCI-H650; first compound 1 µM
  relative viability: 1.24
NCI-H1703; first compound 0.01 µM
  relative viability: 0.143
NCI-H1703; first compound 0.03162 µM
  relative viability: 0.137
NCI-H1703; first compound 0.3162 µM
  relative viability: 0.146
NCI-H1703; first compound 1 µM
  relative viability: 0.131
RERF-LC-KJ; first compound 0.01 µM
  relative viability: 0.595
RERF-LC-KJ; first compound 0.03162 µM
  relative viability: 0.951
RERF-LC-KJ; first compound 0.1 µM
  relative viability: 1.18
RERF-LC-KJ; first compound 0.3162 µM
  relative viability: 0.994
RERF-LC-KJ; first compound 1 µM
  relative viability: 1.03
NCI-H838; first compound 0.01 µM
  relative viability: 0.918
NCI-H838; first compound 0.03162 µM
  relative viability: 0.963
NCI-H838; first compound 0.1 µM
  relative viability: 0.934
NCI-H838; first compound 0.3162 µM
  relative viability: 0.93
NCI-H838; first compound 1 µM
  relative viability: 0.924

## CCN(CC)CCCCNc1ncc2cc(-c3cc(OC)cc(OC)c3)c(NC(=O)NC(C)(C)C)nc2n1 + NC(=O)Nc1cc(-c2cccc(F)c2)sc1C(=O)N[C@H]1CCCNC1 [AZD7762] (partner 0.2 µM)
NCI-H1651; first compound 0.01 µM
  relative viability: 0.444
NCI-H1651; first compound 0.03162 µM
  relative viability: 0.508
NCI-H1651; first compound 0.1 µM
  relative viability: 0.497
NCI-H1651; first compound 0.3162 µM
  relative viability: 0.608
NCI-H1651; first compound 1 µM
  relative viability: 0.397
NCI-H1944; first compound 0.01 µM
  relative viability: 0.474
NCI-H1944; first compound 0.03162 µM
  relative viability: 0.86
NCI-H1944; first compound 0.1 µM
  relative viability: 0.513
NCI-H1944; first compound 0.3162 µM
  relative viability: 0.505
NCI-H1944; first compound 1 µM
  relative viability: 0.494
NCI-H1648; first compound 0.01 µM
  relative viability: 0.69
NCI-H1648; first compound 0.03162 µM
  relative viability: 0.688
NCI-H1648; first compound 0.1 µM
  relative viability: 0.757
NCI-H1648; first compound 0.3162 µM
  relative viability: 0.583
NCI-H1648; first compound 1 µM
  relative viability: 0.445
NCI-H650; first compound 0.01 µM
  relative viability: 0.909
NCI-H650; first compound 0.03162 µM
  relative viability: 0.944
NCI-H650; first compound 0.1 µM
  relative viability: 0.97
NCI-H650; first compound 0.3162 µM
  relative viability: 1.22
NCI-H650; first compound 1 µM
  relative viability: 0.994
NCI-H1703; first compound 0.03162 µM
  relative viability: 0.0943
NCI-H1703; first compound 0.1 µM
  relative viability: 0.12
NCI-H1703; first compound 0.3162 µM
  relative viability: 0.143
NCI-H1703; first compound 1 µM
  relative viability: 0.112
RERF-LC-KJ; first compound 0.01 µM
  relative viability: 0.919
RERF-LC-KJ; first compound 0.03162 µM
  relative viability: 1.04
RERF-LC-KJ; first compound 0.1 µM
  relative viability: 0.983
RERF-LC-KJ; first compound 0.3162 µM
  relative viability: 1.28
RERF-LC-KJ; first compound 1 µM
  relative viability: 1.1
NCI-H838; first compound 0.01 µM
  relative viability: 0.734
NCI-H838; first compound 0.03162 µM
  relative viability: 0.956
NCI-H838; first compound 0.1 µM
  relative viability: 0.992
NCI-H838; first compound 0.3162 µM
  relative viability: 1.1
NCI-H838; first compound 1 µM
  relative viability: 0.76

## O=c1cc(-c2cccc3c2Sc2ccccc2S3)oc(N2CCOCC2)c1 + NC(=O)Nc1cc(-c2cccc(F)c2)sc1C(=O)N[C@H]1CCCNC1 [AZD7762] (partner 0.2 µM)
NCI-H1651; first compound 0.08 µM
  relative viability: 0.452
NCI-H1651; first compound 0.253 µM
  relative viability: 0.538
NCI-H1651; first compound 0.8 µM
  relative viability: 0.44
NCI-H1651; first compound 2.53 µM
  relative viability: 0.389
NCI-H1651; first compound 8 µM
  relative viability: 0.425
NCI-H1944; first compound 0.08 µM
  relative viability: 0.54
NCI-H1944; first compound 0.253 µM
  relative viability: 0.456
NCI-H1944; first compound 0.8 µM
  relative viability: 0.48
NCI-H1944; first compound 2.53 µM
  relative viability: 0.55
NCI-H1944; first compound 8 µM
  relative viability: 0.51
NCI-H1648; first compound 0.253 µM
  relative viability: 0.694
NCI-H1648; first compound 0.8 µM
  relative viability: 0.734
NCI-H1648; first compound 8 µM
  relative viability: 0.69
NCI-H650; first compound 0.08 µM
  relative viability: 0.886
NCI-H650; first compound 0.253 µM
  relative viability: 1.09
NCI-H650; first compound 0.8 µM
  relative viability: 1.03
NCI-H650; first compound 2.53 µM
  relative viability: 0.668
NCI-H650; first compound 8 µM
  relative viability: 1.01
NCI-H1703; first compound 0.253 µM
  relative viability: 0.13
NCI-H1703; first compound 2.53 µM
  relative viability: 0.098
NCI-H1703; first compound 8 µM
  relative viability: 0.116
RERF-LC-KJ; first compound 0.08 µM
  relative viability: 0.913
RERF-LC-KJ; first compound 0.253 µM
  relative viability: 1.05
RERF-LC-KJ; first compound 0.8 µM
  relative viability: 0.846
RERF-LC-KJ; first compound 2.53 µM
  relative viability: 0.977
RERF-LC-KJ; first compound 8 µM
  relative viability: 1.02
NCI-H838; first compound 0.08 µM
  relative viability: 0.933
NCI-H838; first compound 0.253 µM
  relative viability: 1.09
NCI-H838; first compound 0.8 µM
  relative viability: 0.898
NCI-H838; first compound 2.53 µM
  relative viability: 0.941
NCI-H838; first compound 8 µM
  relative viability: 0.98

## O=c1cc(N2CCOCC2)oc2c(-c3cccc4c3sc3ccccc34)cccc12 + Nc1ncn([C@H]2C[C@H](O)[C@@H](CO)O2)c(=O)n1 [Decitabine] (partner 2 µM)
A549; first compound 0.01 µM
  relative viability: 0.26
A549; first compound 0.03162 µM
  relative viability: 0.242
A549; first compound 0.1 µM
  relative viability: 0.189
A549; first compound 0.3162 µM
  relative viability: 0.246
A549; first compound 1 µM
  relative viability: 0.288
NCI-H1651; first compound 0.01 µM
  relative viability: 0.563
NCI-H1651; first compound 0.03162 µM
  relative viability: 0.615
NCI-H1651; first compound 0.1 µM
  relative viability: 0.593
NCI-H1651; first compound 0.3162 µM
  relative viability: 0.642
NCI-H1651; first compound 1 µM
  relative viability: 0.61
NCI-H1944; first compound 0.01 µM
  relative viability: 0.488
NCI-H1944; first compound 0.03162 µM
  relative viability: 0.448
NCI-H1944; first compound 0.1 µM
  relative viability: 0.443
NCI-H1944; first compound 0.3162 µM
  relative viability: 0.408
NCI-H1944; first compound 1 µM
  relative viability: 0.481
NCI-H1648; first compound 0.03162 µM
  relative viability: 0.594
NCI-H1648; first compound 0.1 µM
  relative viability: 0.496
NCI-H1648; first compound 0.3162 µM
  relative viability: 0.466
NCI-H1648; first compound 1 µM
  relative viability: 0.458
NCI-H650; first compound 0.01 µM
  relative viability: 0.319
NCI-H650; first compound 0.03162 µM
  relative viability: 0.384
NCI-H650; first compound 0.3162 µM
  relative viability: 0.338
NCI-H650; first compound 1 µM
  relative viability: 0.303
NCI-H520; first compound 0.01 µM
  relative viability: 0.59
NCI-H520; first compound 0.03162 µM
  relative viability: 0.565
NCI-H520; first compound 0.1 µM
  relative viability: 0.529
NCI-H520; first compound 0.3162 µM
  relative viability: 0.557
NCI-H520; first compound 1 µM
  relative viability: 0.525
RERF-LC-KJ; first compound 0.01 µM
  relative viability: 0.746
RERF-LC-KJ; first compound 0.03162 µM
  relative viability: 0.697
RERF-LC-KJ; first compound 0.1 µM
  relative viability: 0.778
RERF-LC-KJ; first compound 0.3162 µM
  relative viability: 0.751
RERF-LC-KJ; first compound 1 µM
  relative viability: 0.712
NCI-H838; first compound 0.01 µM
  relative viability: 0.481
NCI-H838; first compound 0.03162 µM
  relative viability: 0.49
NCI-H838; first compound 0.1 µM
  relative viability: 0.479
NCI-H838; first compound 0.3162 µM
  relative viability: 0.482
NCI-H838; first compound 1 µM
  relative viability: 0.478
